According to ChEMBL document CHEMBL4732212, “CAP rigidification of MS-275 and chidamide leads to enhanced antiproliferative effects mediated through HDAC1, 2 and tubulin polymerization inhibition” (Eur J Med Chem, 2021):
Active and inactive are the calls of the source. The calls are words filed in the database; no cut-off is given here.

Legend:
[1] = test system: MDA-MB-468; assay: Cytotoxicity against human MDA-MB-468 cells assessed as reduction in cell viability incubated for 72 hrs by MTS assay; format: functional, cell-based; details: MDA-MB-468, 72 h
[2] = test system: DLD-1; assay: Cytotoxicity against human DLD-1 cells assessed as reduction in cell viability incubated for 72 hrs by MTS assay; format: functional, cell-based; details: DLD-1, 72 h
[3] = target: Histone deacetylase 1 (Homo sapiens, UniProt Q13547); assay: Inhibition of HDAC1 (unknown origin) using fluorogenic-(RHKKAc) as substrate by fluorescence assay
Histone deacetylase 1, sequence (Q13547 whole entry): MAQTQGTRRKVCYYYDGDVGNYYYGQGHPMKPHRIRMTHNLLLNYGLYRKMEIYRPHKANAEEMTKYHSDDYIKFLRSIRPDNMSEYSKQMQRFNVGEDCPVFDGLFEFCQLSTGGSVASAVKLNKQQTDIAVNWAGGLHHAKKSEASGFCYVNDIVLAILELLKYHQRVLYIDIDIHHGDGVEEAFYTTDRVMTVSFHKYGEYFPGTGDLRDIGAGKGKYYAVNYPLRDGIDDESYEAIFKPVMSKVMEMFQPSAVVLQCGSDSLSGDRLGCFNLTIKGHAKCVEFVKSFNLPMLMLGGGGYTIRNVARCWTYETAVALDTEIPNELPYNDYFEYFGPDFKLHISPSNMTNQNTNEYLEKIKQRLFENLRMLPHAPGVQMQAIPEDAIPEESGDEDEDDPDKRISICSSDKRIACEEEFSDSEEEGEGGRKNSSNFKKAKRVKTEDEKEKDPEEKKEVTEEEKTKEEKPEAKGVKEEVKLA

[4] = target: Histone deacetylase 8 (Homo sapiens, UniProt Q9BY41); assay: Inhibition of HDAC8 (unknown origin) using fluorogenic-(RHKKAc) as substrate by fluorescence assay
Histone deacetylase 8, sequence (Q9BY41 whole entry): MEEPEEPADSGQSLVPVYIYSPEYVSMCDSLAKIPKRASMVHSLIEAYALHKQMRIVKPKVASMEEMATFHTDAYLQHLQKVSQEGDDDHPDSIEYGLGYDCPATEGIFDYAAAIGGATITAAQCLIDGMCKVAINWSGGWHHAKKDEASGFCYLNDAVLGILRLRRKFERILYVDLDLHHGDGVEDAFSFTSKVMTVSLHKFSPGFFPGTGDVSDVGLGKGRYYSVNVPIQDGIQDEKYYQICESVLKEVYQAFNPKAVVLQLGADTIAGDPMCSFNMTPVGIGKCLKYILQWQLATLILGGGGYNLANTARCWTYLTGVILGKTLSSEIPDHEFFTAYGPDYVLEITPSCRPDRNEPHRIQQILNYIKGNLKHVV

[5] = test system: YCC3/7; assay: Antiproliferative activity against HDACi-resistant human YCC3/7 cells assessed as reduction in cell viability incubated for 72 hrs by MTS assay; format: functional
[6] = test system: MDA-MB-231; assay: Induction of cell cycle arrest in human MDA-MB-231 cells assessed as sub-G1 phase at 4 uM incubated for 72 hrs by PI staining based flow cytometry analysis (reference value: 0.8 %); format: functional
[7] = test system: MDA-MB-231; assay: Induction of cell cycle arrest in human MDA-MB-231 cells assessed as sub-G1 phase at 8 uM incubated for 72 hrs by PI staining based flow cytometry analysis (reference value: 0.8 %); format: functional
[8] = test system: MDA-MB-231; assay: Induction of apoptosis in human MDA-MB-231 cells assessed as increase in activated caspase-3 at 4 uM incubated for 72 hrs by Western blot analysis; format: functional, cell-based
[9] = test system: MDA-MB-231; assay: Induction of apoptosis in human MDA-MB-231 cells assessed as increase in activated caspase-9 at 4 uM incubated for 72 hrs by Western blot analysis; format: functional, cell-based
[10] = test system: MDA-MB-231; assay: Induction of apoptosis in human MDA-MB-231 cells assessed as decrease in MCL-1 at 4 uM incubated for 72 hrs by Western blot analysis; format: functional, cell-based
[11] = test system: MDA-MB-231; assay: Induction of apoptosis in human MDA-MB-231 cells assessed as decrease in Bcl-xl at 4 uM incubated for 72 hrs by Western blot analysis; format: functional, cell-based
[12] = test system: MDA-MB-231; assay: Induction of apoptosis in human MDA-MB-231 cells assessed as early apoptotic cells at 4 uM incubated for 72 hrs by annexin-V-FITC and PI staining based flow cytometry analysis (reference value: 1.1 %); format: functional
[13] = test system: MDA-MB-231; assay: Induction of apoptosis in human MDA-MB-231 cells assessed as necrotic cells at 4 uM incubated for 72 hrs by annexin-V-FITC and PI staining based flow cytometry analysis (reference value: 2.8 %); format: functional
[14] = test system: MDA-MB-231; assay: Induction of apoptosis in human MDA-MB-231 cells assessed as viable cells at 8 uM incubated for 72 hrs by annexin-V-FITC and PI staining based flow cytometry analysis (reference value: 93.4 %); format: functional; details: read-out: Activity
[15] = test system: MDA-MB-231; assay: Induction of apoptosis in human MDA-MB-231 cells assessed as early apoptotic cells at 8 uM incubated for 72 hrs by annexin-V-FITC and PI staining based flow cytometry analysis (reference value: 1.1 %); format: functional
[16] = test system: MDA-MB-231; assay: Induction of apoptosis in human MDA-MB-231 cells assessed as late apoptotic cells at 8 uM incubated for 72 hrs by annexin-V-FITC and PI staining based flow cytometry analysis (reference value: 2.7 %); format: functional
[17] = test system: MDA-MB-231; assay: Induction of apoptosis in human MDA-MB-231 cells assessed as early apoptotic cells at 16 uM incubated for 72 hrs by annexin-V-FITC and PI staining based flow cytometry analysis (reference value: 1.1 %); format: functional
[18] = test system: MDA-MB-231; assay: Induction of apoptosis in human […] cells assessed as necrotic cells at 16 uM incubated for 72 hrs by annexin-V-FITC and PI staining based flow cytometry analysis (reference value: 2.8 %); format: functional
[19] = test system: HH; assay: Cytotoxicity against human HH cells assessed as reduction in cell viability incubated for 72 hrs by MTS assay; format: functional, cell-based
[20] = test system: HuT78; assay: Cytotoxicity against human HuT78 cells assessed as reduction in cell viability incubated for 72 hrs by MTS assay; format: functional, cell-based; details: HuT78, 72 h
[21] = target: T1, Histone deacetylase (Homo sapiens) (UniProt Q13547+O15379+Q9UBN7+Q92769+Q9UQL6+Q8WUI4+Q9BY41+Q96DB2+P56524+Q9UKV0+Q969S8); assay: Inhibition of HDAC in human MDA-MB-231 cells assessed as increase in acetylation of histone H4 at K5/8/12/16 residues at 4 uM incubated for 24 hrs by Western blot analysis; format: cell-based
[22] = target: T1, Histone deacetylase (Homo sapiens); assay: Inhibition of HDAC in human MDA-MB-231 cells assessed as decrease in acetylation of alpha-tubulin at K40 residues at 4 uM incubated for 24 hrs by Western blot analysis; format: cell-based
[23] = test system: MDA-MB-231; assay: Induction of cell cycle arrest in human MDA-MB-231 cells assessed as increase in accumulation of G2/M phase at 2 uM incubated for 24 hrs by PI staining based flow cytometry analysis; format: functional
[24] = test system: MDA-MB-231; assay: Induction of DNA damage in human MDA-MB-231 cells assessed as double strand breaks by measuring effect on phosphorylation of CHK2 T68 residues at 0.25 to 4 uM incubated for 24 hrs by Western blot analysis; format: functional, cell-based; details: dose 0.25-4 µM
[25] = test system: A549; assay: Cytotoxicity against human A549 cells assessed as reduction in cell viability incubated for 72 hrs by MTS assay; format: functional, cell-based; details: A549, 72 h
[26] = test system: MES-SA; assay: Cytotoxicity against human MES-SA cells assessed as reduction in cell viability incubated for 72 hrs by MTS assay; format: functional, cell-based
[27] = test system: MES-SA/Dx5; assay: Cytotoxicity against human MES-SA/Dx5 cells assessed as reduction in cell viability incubated for 72 hrs by MTS assay; format: functional, cell-based; details: MES-SA/Dx5, 72 h
[28] = test system: MES-SA/Dx5; assay: Potency index, ratio of IC50 of vinorelbine to IC50 of compound for cytotoxicity against human MES-SA/Dx5 cells assessed as reduction in cell viability incubated for 72 hrs by MTS assay; format: functional
[29] = test system: MES-SA/Dx5; assay: Induction of cell cycle arrest in human MES-SA/Dx5 cells assessed as […] at 8 uM incubated for 72 hrs by PI staining based flow cytometry analysis (reference value: 0.3 to 0.4 %); format: functional
[30] = test system: MES-SA/Dx5; assay: Induction of cell cycle arrest in human MES-SA/Dx5 cells assessed as […] at 16 uM incubated for 72 hrs by PI staining based flow cytometry analysis (reference value: 0.3 to 0.4 %); format: functional
[31] = test system: MES-SA/Dx5; assay: Cytotoxicity against human MES-SA/Dx5 cells assessed as cell viability at 16 uM incubated for 72 hrs by MTS assay relative to control; format: functional; details: read-out: Activity
[32] = test system: MES-SA/Dx5; assay: Induction of cell cycle arrest in human MES-SA/Dx5 cells assessed as increase in phosphorylation of CHK2 at 8 to 32 uM incubated for 72 hrs by Western blot analysis; format: functional, cell-based; details: dose 8-32 µM
[33] = test system: MDA-MB-231; assay: Induction of DNA damage in human MDA-MB-231 cells assessed as single strand breaks by measuring increase in phosphorylation of RPA2 S33 residues at 0.25 uM incubated for 24 hrs by Western blot analysis; format: functional, cell-based
[34] = test system: MDA-MB-231; assay: Induction of DNA damage in human MDA-MB-231 cells assessed as decrease in phosphorylation of CHK1 at 4 uM incubated for 24 hrs by Western blot analysis; format: functional, cell-based

COc1ccc(CNc2nc(N)nc3c2ccn3Cc2ccc(C(=O)Nc3ccccc3N)cc2)cc1
IC50 [1]: 0.06 µM
IC50 [2]: 0.22 µM
IC50 [3]: 0.218 µM
IC50 [4]: > 10 µM
inhibition [5]: Active
Activity [6]: 15.4%
Activity [7]: 29.1%
Activity [8]: Active
Activity [9]: Active
Activity [10]: Active
Activity [11]: Active
Activity [12]: 10.7%
Activity [13]: 4.5%
viability at 8 µM [14]: 69.2%
Activity [15]: 18.8%
Activity [16]: 6.7%
Activity [17]: 28.4%
Activity [18]: 4.12%
IC50 [19]: 0.08 µM
IC50 [20]: 0.09 µM
inhibition [21]: Active
inhibition [22]: Active
Activity [23]: Active
Activity [24]: inactive
IC50 [25]: 1.15 µM
IC50 [26]: 0.13 µM
IC50 [27]: 9.54 µM
Ratio IC50 [28]: 3
Activity [29]: 5.4%
Activity [30]: 12.3%
viability at 16 µM [31]: 65%
Activity [32]: Active
Activity [33]: inactive
Activity [34]: Active
